The nature of this assay: Cytotoxicity against mouse L929 cells assessed as reduction in cell viability.

From ChEMBL document CHEMBL4321806 (J Med Chem, 2019) come the findings set out here.

Structures are written as SMILES.

As usually defined, the IC50 is the midpoint of a concentration-inhibition curve. In the case of `COC(=O)c1cccc(COc2c(-c3ccc(OCCOCCOCCn4cc(CCCOc5ccc6c(=O)cc(-c7ccccc7)oc6c5)nn4)cc3)oc3ccccc3c2=O)c1`, the IC50 is above 100 µM.
The same measure for `O=c1cc(-c2ccc(OCCOCCn3cc(CN(Cc4ccccc4)Cc4cn(CCOCCOc5ccc(-c6cc(=O)c7ccccc7o6)cc5)nn4)nn3)cc2)oc2ccccc12`: above 100 µM.
As to `COC(=O)c1cccc(COc2c(-c3ccc(OCCOCCn4cc(CCCCOc5ccc6c(=O)cc(-c7ccccc7)oc6c5)nn4)cc3)oc3ccccc3c2=O)c1`, the half-maximal inhibitory concentration (IC50) was above 100 µM.
For the compound `O=c1cc(-c2ccccc2)oc2cc(OCCn3cc(CN(Cc4ccccc4)Cc4cn(CCOc5ccc6c(=O)cc(-c7ccccc7)oc6c5)nn4)nn3)ccc12`, the IC50 was above 100 µM.
The figure for `COC(=O)c1cccc(COc2c(-c3ccc(OCCOCCOCCn4cc(CCCCOc5ccc6c(=O)cc(-c7ccccc7)oc6c5)nn4)cc3)oc3ccccc3c2=O)c1` is above 100 µM; for `Cc1ccc2oc(-c3ccc(OCCOCCOCCOCCOCCOc4ccc(-c5cc(=O)c6cc(C)ccc6o5)cc4)cc3)cc(=O)c2c1` it is above 100 µM; for `O=c1cc(-c2ccccc2)oc2cc(OCCCc3cn(CCOCCOCCOc4ccc5c(=O)cc(-c6ccccc6)oc5c4)nn3)ccc12` it is above 50 µM.
The figure for `COC(=O)c1cccc(COc2c(-c3ccc(OCCOCCn4cc(CN5CCN(Cc6cn(CCOCCOc7ccc(-c8oc9ccccc9c(=O)c8OCc8cccc(C(=O)OC)c8)cc7)nn6)CC5)nn4)cc3)oc3ccccc3c2=O)c1` is above 100 µM; for `O=c1cc(-c2ccccc2)oc2cc(OCCOCCn3cc(CN(Cc4ccccc4)Cc4cn(CCOCCOc5ccc6c(=O)cc(-c7ccccc7)oc6c5)nn4)nn3)ccc12` it is above 100 µM; for `Cc1ccc2oc(-c3ccc(OCCOCCOCCn4cc(CN(CCOc5ccc6c(=O)cc(-c7ccccc7)oc6c5)Cc5ccccc5)nn4)cc3)cc(=O)c2c1` it is above 100 µM.
The figure for `O=c1cc(-c2ccccc2)oc2cc(OCCOCCOCCn3cc(COCCOc4ccc5c(=O)cc(-c6ccccc6)oc5c4)nn3)ccc12` is 12.1 µM.
For `O=c1cc(-c2ccccc2)oc2cc(OCCCCc3cn(CCOCCOc4ccc5c(=O)cc(-c6ccccc6)oc5c4)nn3)ccc12`, the IC50 is above 100 µM.
The figure for `COC(=O)c1cccc(COc2c(-c3ccc(OCCOCCn4cc(CN5CCCN(Cc6cn(CCOCCOc7ccc(-c8oc9ccccc9c(=O)c8OCc8cccc(C(=O)OC)c8)cc7)nn6)CC5)nn4)cc3)oc3ccccc3c2=O)c1` is above 100 µM.
Consider `Cc1ccc2oc(-c3ccc(OCCOCCOCCn4cc(CCCOc5ccc6c(=O)cc(-c7ccccc7)oc6c5)nn4)cc3)cc(=O)c2c1`, for which the IC50 was above 50 µM.
The same measure for `Cc1ccc2oc(-c3ccc(OCCOCCOCCn4cc(COCCOc5ccc6c(=O)cc(-c7ccccc7)oc6c5)nn4)cc3)cc(=O)c2c1`: above 100 µM; for `O=c1cc(-c2ccccc2)oc2cc(OCCOCc3cn(CCOCCOc4ccc(-c5oc6ccccc6c(=O)c5OCc5ccccc5)cc4)nn3)ccc12`: above 100 µM; for `COC(=O)c1cccc(COc2c(-c3ccc(OCCOCCn4cc(CCCOc5ccc(-c6cc(=O)c7ccc(F)cc7o6)cc5)nn4)cc3)oc3ccccc3c2=O)c1`: above 100 µM.
The figure for `COC(=O)c1cccc(COc2c(-c3ccc(OCCOCCOCCn4cc(CCCCOc5ccc(-c6cc(=O)c7cc(C)ccc7o6)cc5)nn4)cc3)oc3ccccc3c2=O)c1` is above 100 µM.
Consider `O=c1cc(-c2ccccc2)oc2cc(OCCCCc3cn(CCOCCOCCOc4ccc(-c5oc6ccccc6c(=O)c5OCc5ccccc5)cc4)nn3)ccc12`, for which the IC50 is above 100 µM.
The same measure for `O=c1cc(-c2ccc(OCCCc3cn(CCOCCOCCOc4ccc5c(=O)cc(-c6ccccc6)oc5c4)nn3)cc2)oc2cc(F)ccc12`: above 100 µM; for `O=c1cc(-c2ccccc2)oc2cc(OCCOCCn3cc(COCCOc4ccc5c(=O)cc(-c6ccccc6)oc5c4)nn3)ccc12`: above 100 µM.
The same measure for `Cc1ccc2oc(-c3ccc(OCCCCc4cn(CCOCCOc5ccc(-c6oc7ccccc7c(=O)c6OCc6ccccc6)cc5)nn4)cc3)cc(=O)c2c1`: above 100 µM; for `COC(=O)c1cccc(COc2c(-c3ccc(OCCOCCn4cc(CCCOc5ccc6c(=O)cc(-c7ccccc7)oc6c5)nn4)cc3)oc3ccccc3c2=O)c1`: above 100 µM.
The same measure for `COC(=O)c1cccc(COc2c(-c3ccc(OCCOCCOCCn4cc(CN5CCN(Cc6cn(CCOCCOCCOc7ccc(-c8oc9ccccc9c(=O)c8OCc8cccc(C(=O)OC)c8)cc7)nn6)CC5)nn4)cc3)oc3ccccc3c2=O)c1`: above 100 µM; for `COC(=O)c1cccc(COc2c(-c3ccc(OCCOCCn4cc(CCCCOc5ccc(-c6cc(=O)c7cc(C)ccc7o6)cc5)nn4)cc3)oc3ccccc3c2=O)c1`: above 100 µM.
Consider `Cc1ccc2oc(-c3ccc(OCCCCc4cn(CCOc5ccc6c(=O)cc(-c7ccccc7)oc6c5)nn4)cc3)cc(=O)c2c1`, for which the concentration for half-maximal inhibition (IC50) was 9.2 µM.
The same measure for `O=c1cc(-c2ccccc2)oc2cc(OCCOCc3cn(CCOCCOCCOc4ccc(-c5cc(=O)c6cc(F)ccc6o5)cc4)nn3)ccc12`: above 50 µM.
The figure for `O=c1cc(-c2ccccc2)oc2cc(OCCCCc3cn(CCOCCOc4ccc(-c5cc(=O)c6cc(F)ccc6o5)cc4)nn3)ccc12` is above 100 µM; for `O=c1cc(-c2ccc(OCCOCCOCCn3cc(CCCOc4ccc5c(=O)cc(-c6ccccc6)oc5c4)nn3)cc2)oc2ccccc12` it is 12 µM; for `O=c1cc(-c2ccccc2)oc2cc(OCCOCCOCCn3cc(CN(Cc4ccccc4)Cc4cn(CCOCCOCCOc5ccc6c(=O)cc(-c7ccccc7)oc6c5)nn4)nn3)ccc12` it is above 100 µM.
The same measure for `O=c1cc(-c2ccccc2)oc2cc(OCCOCc3cn(CCOCCOc4ccc(-c5cc(=O)c6cc(F)ccc6o5)cc4)nn3)ccc12`: above 100 µM.
Consider `Cc1ccc2oc(-c3ccc(OCCCCc4cn(CCOCCOCCOc5ccc6c(=O)cc(-c7ccccc7)oc6c5)nn4)cc3)cc(=O)c2c1`, for which the IC50 is above 100 µM.
The same measure for `OCCOCCn1cc(CN(Cc2ccccc2)Cc2cn(CCOCCO)nn2)nn1`: above 100 µM.
The figure for `O=c1c(OCc2ccccc2)c(-c2ccc(OCCOCCOCCn3cc(CN(Cc4ccccc4)Cc4cn(CCOCCOCCOc5ccc(-c6oc7ccccc7c(=O)c6OCc6ccccc6)cc5)nn4)nn3)cc2)oc2ccccc12` is above 100 µM; for `COC(=O)c1cccc(COc2c(-c3ccc(OCCOCCOCCn4cc(CCCOc5ccc(-c6cc(=O)c7ccc(F)cc7o6)cc5)nn4)cc3)oc3ccccc3c2=O)c1` it is above 100 µM.
The figure for `COC(=O)c1cccc(COc2c(-c3ccc(OCCOCCn4cc(CN(C)CCN(C)Cc5cn(CCOCCOc6ccc(-c7oc8ccccc8c(=O)c7OCc7cccc(C(=O)OC)c7)cc6)nn5)nn4)cc3)oc3ccccc3c2=O)c1` is above 100 µM.
Regarding `Cc1ccc2oc(-c3ccc(OCCCCc4cn(CCN(CCOc5ccc6c(=O)cc(-c7ccccc7)oc6c5)Cc5ccccc5)nn4)cc3)cc(=O)c2c1`, the IC50 was above 100 µM.
The figure for `O=c1cc(-c2ccccc2)oc2cc(OCCCCc3cn(CCOCCOCCOc4ccc5c(=O)cc(-c6ccccc6)oc5c4)nn3)ccc12` is above 100 µM.
On to `O=c1cc(-c2ccc(OCCCc3cn(CCOCCOCCOc4ccc(-c5oc6ccccc6c(=O)c5OCc5ccccc5)cc4)nn3)cc2)oc2cc(F)ccc12`, for which the IC50 is above 100 µM.
The same measure for `COC(=O)c1cccc(COc2c(-c3ccc(OCCOCCn4cc(-c5ccc(-c6cn(CCOCCOc7ccc(-c8oc9ccccc9c(=O)c8OCc8cccc(C(=O)OC)c8)cc7)nn6)cc5)nn4)cc3)oc3ccccc3c2=O)c1`: above 100 µM.
